According to article PMC4359714 (Naunyn-Schmiedeberg's Archives of Pharmacology, 2015):

Columns and labels:
[1] = system: cold pressor effect in rats; assay: Cold-induced increase in blood pressure, cold pressor test (CPT); assay type: in vivo, rat; conditions: 10 mg/kg p.o.
Protocol: 2 h prior to anesthesia with sodium pentobarbital at 60 mg/kg i.p. Blood pressure was recorded for 5 min for “pre-cold baseline” and an additional 5 min during immersion of the paws and ventral half of the body in ice water. Mean blood pressure (MBP) was derived electronically using Digi-Med Blood Pressure Analyzer (Model 400). Plasma was collected through the artery catheter immediately after the cold pressor test for pharmacokinetic analysis. Percent increase from baseline and percent inhibition attributed to treatment with test compound were then determined using the following formula: (1) percent increase from baseline (mmHg) cold pressor effect = [(cold-evoked change in MBP)/MBP pre-cold] × 100; (2) percent inhibition of cold pressor effect = [1 − (cold-evoked change in MBP post-test compound/cold-evoked change in MBP post-vehicle)] × 100.

[2] = system: TRPM8 on cutaneous nerve terminals (C fibers); assay: Skin-nerve preparation, menthol-evoked activation of C fibers; set-up: species or system mouse; conditions: 10 μM; 300 μM menthol; n = 22; p = 0.005
Description: Adult C57BL/6 mice were obtained from Jackson Laboratories and used for ex vivo skin-nerve preparations. Mice were allowed to acclimate to the animal facility at the Medical College of Wisconsin, an Association for the Assessment and Accreditation of Laboratory Animal […] (AALAC)-accredited facility, for approximately 1 week following shipment. Animals were housed with up to four other cagemates and had ad libitum access to food pellets and hyper-chlorinated water. Mice were housed on a 14:10 h light-dark cycle in cages containing aspen bedding and paper nesting material. Room temperatures averaged 21 °C. Prior to use, animals were briefly anesthetized with inhaled isoflurane and then sacrificed via cervical dislocation.
The mouse saphenous skin-nerve in vitro preparation (Koltzenburg et al. [1997]; Stucky et al. [1999]) was used for electrophysiological recordings of cutaneous terminals of primary afferent fibers in situ. […] Once a unit with a signal to noise ratio >2 was identified, the mechanical threshold was determined using calibrated von Frey filaments (range, 0.44–147.0 mN). […]
Wave forms of action potentials evoked by mechanical stimuli were saved on an oscilloscope for comparison of shape and profile. […] Action potentials were discriminated and counted off-line using a spike histogram software extension. […] All data was also analyzed in a blinded manner.

SNL rats = assay: SNL-induced tactile allodynia (von Frey, up-down method); assay type: in vivo, rat; conditions: 100 mg/kg p.o.; p > 0.05 vs vehicle (4.4 ± 1.2 g)
Protocol: SNL surgery was performed using aseptic surgical techniques and a stereomicroscope (Kim and Chung [1992]). Spinal nerve injury was caused by ligating the left L5 and L6 spinal nerves, with special care to avoid damage to the L4 spinal nerve or surrounding area. More specifically, under gaseous anesthesia with a mixture of O2 and isoflurane (3 % for induction and 2 % for maintenance), skin was excised and the longissimus lumborum muscle, part of articular processes (L4-S1), and the fascia above L6 spinal nerve were carefully removed. […]
Behavioral testing Two weeks post surgery, mechanical sensitivity was measured by determining the median 50 % foot withdrawal threshold for von Frey filaments using the up-down method (Chaplan et al. [1994]). […] To avoid possible reflex responses, only abrupt withdrawal of the foot accompanied by pain indicative behaviors (namely paw flinching, shaking, or licking for more than 2 s) was recorded as a response. […]
In vivo IC50 and IC90 estimates using WDS model data were determined by fitting a sigmoidal dose-response curve to individual animal number of WDS versus resulting plasma concentration. Behavioral and electrophysiological data are expressed as mean ± standard error of the mean (S.E.M.). Results were analyzed using one-way analysis of variance (ANOVA) with Dunnett’s multiple-comparisons post-hoc test for significance relative to vehicle. […]

## C[C@H](NC(=O)N1CCc2cccnc2[C@H]1c1ccc(C(F)(F)F)cc1)C(F)(F)F [AMG2850, (R)-8-(4-(trifluoromethyl)phenyl)-N-((S)-1,1,1-trifluoropropan-2-yl)-5,6-dihydro-1,7-naphthyridine-7(8H)-carboxamide]
[1]
  effect on cold pressor response: fully blocked
[2]
  effect on menthol-evoked firing of C fibers: completely inhibited all menthol-evoked firing
SNL rats
  tactile threshold (von Frey), SNL model: 5.8 ± 1.3 g
